19 compounds from patent US20240336595A1, “BIFUNCTIONAL COMPOUNDS FOR DEGRADING BTK WITH DIMINISHED IMID ACTIVITY” (NURIX THERAPEUTICS, INC., priority 2021, published 2024) can be followed below.

One assay concerns Aiolos. Briefly: IMiD activity: Aiolos degradation in PBMCs by flow cytometry. Type of assay: cell-based. The conditions noted are these: human PBMCs, 24 hours; for Dmax: maximum percent Aiolos degradation in the assay; for DC50: compound concentration degrading 50% of Aiolos. Here is the method: In addition, Compounds 1-24 were assayed for IMiD activity. Frozen human peripheral blood mononuclear cells (PBMCs) were thawed and treated with DMSO or compound for 24 hours and then fixed and permeabilized using a Foxp3/Transcription Factor Fixation/Permeabilization Kit (eBioscience, 00-5523). Cells were stained with fluorophore-conjugated antibodies against CD20 (Biolegend 302330), CD3 (BD Pharmingen 552127), and Aiolos (Biolegend 371106). An additional set of DMSO-treated PBMCs was stained for CD20, CD3, and an AlexaFluor 647-conjugated mouse IgG1 isotype control antibody (Biolegend 400136). Stained cells were run on an Attune NxT Acoustic Focusing Flow Cytometer (Thermo-Fisher A29004), and data was analyzed using FlowJo (v10.5.3) and GraphPad Prism (v7.00) software. Single lymphocytes were gated for B cells (CD20+CD3-) and T cells (CD3+CD20-), and the geometric mean fluorescence intensity (MFI) of Aiolos was calculated for each population. The MFI of the isotype control was calculated for each population and used to quantify background staining. Percent Aiolos degradation was calculated for each compound-treated sample using the following equation: […]
DC50 is the compound concentration degrading 50% of Aiolos. Dmax is the maximum percent Aiolos degradation in the assay.
On the technique in general: A flow cytometer gives signals particle by particle.

Assay [1] relates to Experimental autoimmune encephalomyelitis (EAE). Briefly: Experimental autoimmune encephalomyelitis (EAE) model. The conditions noted are these: EAE, 30 mg/kg, spinal cords collected on day 22. The class given is in vivo, C57BL/6 mice. As to the method: EAE was induced in C57BL/6 mice by immunization with an emulsion of MOG1-125 in complete Freund's adjuvant (CFA), followed by administration of pertussis toxin in PBS, first on the day of immunization (Day 0) and then again the following day (Day 1).
Dosing of all mice started on Day −1 and continued through Day 22. Fingolimod (FTY720, Gilenya) is the a commonly used positive control in this model.
Statistical significance was determined between vehicle control and treated groups based on the end clinical scores using Wilcoxon's non-parametric test.
Statistical analysis: Demyelination (anti-MBP) with Wilcoxon's non-parametric test; inflammatory foci or apoptosis with two-tailed Student's t-test.

Broadly, the Dmax is the greatest extent of degradation seen. Low readings indicate shallow degradation, high ones deep degradation. The term DC50 denotes the concentration giving 50% degradation. Lower therefore signals a more potent degrader.

With `CN1CCN([C@@H]2CCCN(c3cnc(C(N)=O)c(Nc4ccc(C5CCN(CC6CCN(c7cnc(C(=O)NC8CCC(=O)NC8=O)nc7)CC6)CC5)cc4)n3)C2)C1=O` (mixture of isomers) [Compound 3, 5-(4-((4-(4-((3-carbamoyl-6-((R)-3-(3-methyl-2-oxoimidazolidin-1-yl)piperidin-1-yl)pyrazin-2-yl)amino)phenyl)piperidin-1-yl)methyl)piperidin-1-yl)-N—((RS)-2,6-dioxopiperidin-3-yl)pyrimidine-2-carboxamide], the Dmax with Aiolos worked out at 3.2%.

`NC(=O)c1ncc(N2CCCCC2)nc1Nc1ccc2c(c1)CCN(CC1CCN(c3ccc(C(=O)NC4CCC(=O)NC4=O)nc3)CC1)C2` (racemic) [Compound 4, rac-3-[(2-{[1-(6-{[(3R)-2,6-dioxopiperidin-3-yl]carbamoyl}pyridin-3-yl)piperidin-4-yl]methyl}-3,4-dihydro-1H-isoquinolin-6-yl)amino]-5-(piperidin-1-yl)pyrazine-2-carboxamide]: in the assay with Aiolos, the DC50 worked out at 344 nM and the Dmax amounted to 28.3%.

In the assay with Aiolos, `CN1CCN([C@@H]2CCCN(c3cnc(C(N)=O)c(Nc4ccc(C5CCN(CC6CCN(c7ccc(C(=O)NC8CCC(=O)NC8=O)cc7)CC6)CC5)cc4)n3)C2)C1=O` (mixture of isomers) [Compound 5, 3-((4-(1-((1-(4-(((RS)-2,6-dioxopiperidin-3-yl)carbamoyl)phenyl)piperidin-4-yl)methyl)piperidin-4-yl)phenyl)amino)-5-((R)-3-(3-methyl-2-oxoimidazolidin-1-yl)piperidin-1-yl)pyrazine-2-carboxamide] gave a DC50 of 468 nM and a Dmax of 10.1%.

In turn, `CN1CCN([C@@H]2CCCN(c3cnc(C(N)=O)c(Nc4ccc(C5CCN(C[C@@H]6CCN(c7ccc8c(c7)n(C)c(=O)n8C7CCC(=O)NC7=O)C6)CC5)cc4)n3)C2)C1=O` (mixture of isomers) [Compound 8, 3-((4-(1 (((3 S)-1-(1-(2,6-dioxopiperidin-3-yl)-3-methyl-2-oxo-2,3-dihydro-1H-benzo[d]imidazol-5-yl)pyrrolidin-3-yl)methyl)piperidin-4-yl)phenyl)amino)-5-((R)-3-(3-methyl-2-oxoimidazolidin-1-yl)piperidin-1-yl)pyrazine-2-carboxamide] returned a Dmax in the assay on Aiolos of 1.0%.

In the assay with Aiolos, `CN1CCN([C@@H]2CCCN(c3cnc(C(N)=O)c(Nc4ccc(C5CCN(C[C@H]6CC[C@@H](Nc7cccc8c7C(=O)N([C@@H]7CCC(=O)NC7=O)C8=O)CC6)CC5)cc4)n3)C2)C1=O` (racemic) [Compound 9, 5-[(3R)-3-(3-methyl-2-oxoimidazolidin-1-yl)piperidin-1-yl]-3-{[4-(1-{[(1 s,4s)-4-{[2-(2,6-dioxopiperidin-3-yl)-1,3-dioxoisoindol-4-yl]amino}cyclohexyl]methyl}piperidin-4-yl)phenyl]amino}pyrazine-2-carboxamide] had a DC50 of 96.6 nM and a Dmax of 30.8%.

In the assay on Aiolos, `CN1CCN([C@@H]2CCCN(c3cnc(C(N)=O)c(Nc4ccc(C5CCN(CC6CCN(c7ccc(C(=O)N[C@@H]8CCC(=O)NC8=O)nc7)CC6)CC5)cc4)n3)C2)C1=O` [Compound 2] showed a half-maximal degradation concentration (DC50) of 596 nM and a Dmax of 17.9%.

`Cn1c(=O)n([C@@H]2CCC(=O)NC2=O)c2ccc(N3CC[C@H](CN4CCC(c5ccc(Nc6nc(N7CCCCC7)cnc6C(N)=O)cc5)CC4)C3)cc21` [Compound 6] showed a Dmax in the assay with Aiolos of 1.1%.

Consider `Cn1c(=O)n([C@@H]2CCC(=O)NC2=O)c2ccc(N3CC[C@@H](CN4CCC(c5ccc(Nc6nc(N7CCCCC7)cnc6C(N)=O)cc5)CC4)C3)cc21` [Compound 7], for which, in the assay with Aiolos, the Dmax is 4.6%.

For `NC(=O)c1ncc(N2CCCCC2)nc1Nc1ccc(C2CCN(CC3CCN(c4ccc(CC5CCC(=O)NC5=O)cn4)CC3)CC2)cc1` (centres unmarked) [Compound 10], the Dmax in the assay on Aiolos worked out at 3.2%.

For the compound `CN1CCN([C@@H]2CCCN(c3cnc(C(N)=O)c(Nc4ccc(C5CCN(CC6CCN(c7ncc(C(=O)NC8CCC(=O)NC8=O)o7)CC6)CC5)cc4)n3)C2)C1=O` (some centres unmarked) [Compound 11], the Dmax in the assay on Aiolos stood at 1.9%.

In the assay with Aiolos, `CN1CCN([C@@H]2CCCN(c3cnc(C(N)=O)c(Nc4ccc(C5CCN(CC6CCN(c7ccc8c(c7)n(C)c(=O)n8C7CCC(=O)NC7=O)CC6)CC5)cc4)n3)C2)C1=O` (some centres unmarked) [Compound 12] registered a Dmax of 5.3%.

In the assay on Aiolos, `CN1CCN([C@@H]2CCCN(c3cnc(C(N)=O)c(Nc4ccc(C5CCN(CC6CCN(c7ccc(OC8CCC(=O)NC8=O)cn7)CC6)CC5)cc4)n3)C2)C1=O` (some centres unmarked) [Compound 13] gave a DC50 of 2.89 nM and a Dmax of 4.9%.

For the compound `NC(=O)c1ncc(N2CCCCC2)nc1Nc1ccc(N2CCC3(CCN(Cc4ccc5c(c4)C(=O)N(C4CCC(=O)NC4=O)C5=O)CC3)CC2)cc1` (centres unmarked) [Compound 14], in the assay with Aiolos, the DC50 came out at 37.6 nM and the Dmax is 30.4%.

In the assay on Aiolos, `CN1CCN([C@H]2CCCN(c3cnc(C(N)=O)c(Nc4ccc(C5CCN(CC6CCN(c7ccc(C(=O)NC8CCC(=O)NC8=O)nc7)CC6)CC5)cc4)n3)C2)C1=O` (some centres unmarked) [Compound 15] registered a DC50 of 345 nM and a Dmax of 27.4%.

With `CN1CCN([C@@H]2CCCN(c3cnc(C(N)=O)c(Nc4ccc(C5(C)CCN(C6CN(Cc7ccc8c(c7)C(=O)N(C7CCC(=O)NC7=O)C8=O)C6)CC5)cc4)n3)C2)C1=O` (some centres unmarked) [Compound 16], in the assay with Aiolos, the Dmax stood at 23.6%.

For `CN1CCN([C@H]2CCCN(c3cnc(C(N)=O)c(Nc4ccc(N5CCN(CC#Cc6cccc7c6CN(C6CCC(=O)NC6=O)C7=O)CC5)cc4)n3)C2)C1=O` (some centres unmarked) [Compound 17], in the assay with Aiolos, the Dmax worked out at 15.1%.

For the compound `CN1CCN([C@@H]2CCCN(c3cnc(C(N)=O)c(Nc4ccc(N5CCC6(CCCN(c7ccc8c(c7)C(=O)N(C7CCC(=O)NC7=O)C8=O)C6)CC5)cc4)n3)C2)C1=O` (some centres unmarked) [Compound 18], in the assay with Aiolos, it took 2650 nM to reach half-maximal degradation (DC50) and the Dmax is 28.2%.

`CN1CCN([C@@H]2CCCN(c3cnc(C(N)=O)c(Nc4ccc(N5CCN(C(=O)CCOCCCc6ccc7c(c6)C(=O)N(C6CCC(=O)NC6=O)C7)CC5)cc4)n3)C2)C1=O` (some centres unmarked) [Compound 19] returned a Dmax in the assay on Aiolos of 9.1%.

Consider `C=CC(=O)N1CCC[C@@H](n2nc(-c3ccc(Oc4ccccc4)cc3)c3c(N)ncnc32)C1` [Ibrutinib, reference compound], for which, in assay [1], the “Apoptotic cells/section +/− SD” value is 0.4 +/− 0.7 and the “Inflammatory foci/section +/− SD” value was 1.0 +/− 1.4. For the same compound, in assay [1] (anti-MBP), the “Demyelination score +/− SD” value is 0.4 +/− 0.6.
